Here are results for 26 compounds from patent US11787785B2 (NOVARTIS AG, priority 2021, dated 2023).

In the test the target is T1, WIZ protein (HiBit-WIZ fusion protein) (Homo sapiens, UniProt O95785+Q96SW2).
T1 construct: expressed in transfected cells
Nature of the test: Quantification of WIZ protein levels in HiBit tag fusion protein assay (WIZ HiBit assay in 293T cells). Type of test: cell-based. More on the design: remaining activity / Dmax: dose or concentration left out as unconfirmed. To be noted: for Dmax at 25 µM / remaining activity at 25 µM / Dmax / remaining activity: HEK-293T; for Dmax at 25 µM: 100 − Amax; for Dmax at 25 µM / remaining activity at 25 µM: 293T cells; for Dmax at 25 µM / Dmax: read-out: % degradation of WIZ (100 − Amax); for remaining activity at 25 µM: DMSO-normalized, curve-fitted percentage of WIZ-HiBit remaining at 25 uM; for remaining activity at 25 µM / remaining activity: read-out: WIZ Amax; for DC50: WIZ HiBit assay in 293T cells, 10-point, 5-fold dose response, highest concentration 25 μM, about 18 hours, read-out: WIZ AC50. Summed up: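 Luminescence after LgBit complementation quantified remaining HiBit-WIZ in lysates of single-copy stable 293T lines. Cells dosed ~18 h at 37 °C with 10-point, 5-fold dilutions (highest 25 μM); DMSO set to 100%, fitted curve gave % remaining at 25 μM (Amax).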
A general note: The HiBiT peptide binds its large partner to form an active luciferase.

The structures appear in SMILES notation. Some results are limits rather than exact numbers.

T1 sequence (O95785 whole entry, the tested form may be a part): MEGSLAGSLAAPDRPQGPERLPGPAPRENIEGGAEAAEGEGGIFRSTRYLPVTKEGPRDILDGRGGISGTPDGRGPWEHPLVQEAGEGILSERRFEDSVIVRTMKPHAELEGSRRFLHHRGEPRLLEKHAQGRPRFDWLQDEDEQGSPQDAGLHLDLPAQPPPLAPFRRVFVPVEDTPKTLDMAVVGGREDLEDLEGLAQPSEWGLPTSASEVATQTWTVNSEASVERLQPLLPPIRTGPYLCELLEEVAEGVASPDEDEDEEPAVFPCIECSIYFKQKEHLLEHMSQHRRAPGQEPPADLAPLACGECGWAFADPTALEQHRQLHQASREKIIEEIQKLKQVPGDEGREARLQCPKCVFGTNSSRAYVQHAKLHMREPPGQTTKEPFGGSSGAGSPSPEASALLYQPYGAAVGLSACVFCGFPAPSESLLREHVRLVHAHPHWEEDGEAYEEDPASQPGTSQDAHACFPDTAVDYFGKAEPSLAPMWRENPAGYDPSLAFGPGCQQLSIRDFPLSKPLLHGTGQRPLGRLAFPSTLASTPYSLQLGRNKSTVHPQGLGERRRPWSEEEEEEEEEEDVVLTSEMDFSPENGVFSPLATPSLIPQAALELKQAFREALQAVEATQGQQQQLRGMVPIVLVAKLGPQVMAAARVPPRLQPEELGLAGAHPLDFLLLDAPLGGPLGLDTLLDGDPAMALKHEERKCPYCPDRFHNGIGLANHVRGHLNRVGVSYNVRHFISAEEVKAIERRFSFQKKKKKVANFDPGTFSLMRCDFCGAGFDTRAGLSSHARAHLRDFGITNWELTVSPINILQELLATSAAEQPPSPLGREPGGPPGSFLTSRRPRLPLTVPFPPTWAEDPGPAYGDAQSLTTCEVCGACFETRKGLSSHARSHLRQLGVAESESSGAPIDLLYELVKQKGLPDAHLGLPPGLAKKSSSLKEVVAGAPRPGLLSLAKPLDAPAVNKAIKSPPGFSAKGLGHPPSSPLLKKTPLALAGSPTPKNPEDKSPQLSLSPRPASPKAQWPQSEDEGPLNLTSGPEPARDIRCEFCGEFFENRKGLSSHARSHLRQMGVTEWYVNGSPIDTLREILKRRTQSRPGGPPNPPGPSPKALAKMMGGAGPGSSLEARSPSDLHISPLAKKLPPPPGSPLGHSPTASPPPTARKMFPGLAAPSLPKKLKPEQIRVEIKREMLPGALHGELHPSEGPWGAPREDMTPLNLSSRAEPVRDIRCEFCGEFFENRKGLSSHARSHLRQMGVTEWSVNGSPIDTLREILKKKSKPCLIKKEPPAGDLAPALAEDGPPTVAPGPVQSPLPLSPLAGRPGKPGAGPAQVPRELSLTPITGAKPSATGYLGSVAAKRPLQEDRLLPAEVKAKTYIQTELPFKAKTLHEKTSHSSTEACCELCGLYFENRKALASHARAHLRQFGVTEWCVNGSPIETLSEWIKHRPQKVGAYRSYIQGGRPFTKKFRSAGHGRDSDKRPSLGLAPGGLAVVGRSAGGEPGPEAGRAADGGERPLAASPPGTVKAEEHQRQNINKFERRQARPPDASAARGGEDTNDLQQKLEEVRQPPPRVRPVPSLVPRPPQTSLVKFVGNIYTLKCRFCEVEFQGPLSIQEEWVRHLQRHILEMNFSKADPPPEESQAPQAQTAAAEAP
T1 sequence (Q96SW2 whole entry, the tested form may be a part): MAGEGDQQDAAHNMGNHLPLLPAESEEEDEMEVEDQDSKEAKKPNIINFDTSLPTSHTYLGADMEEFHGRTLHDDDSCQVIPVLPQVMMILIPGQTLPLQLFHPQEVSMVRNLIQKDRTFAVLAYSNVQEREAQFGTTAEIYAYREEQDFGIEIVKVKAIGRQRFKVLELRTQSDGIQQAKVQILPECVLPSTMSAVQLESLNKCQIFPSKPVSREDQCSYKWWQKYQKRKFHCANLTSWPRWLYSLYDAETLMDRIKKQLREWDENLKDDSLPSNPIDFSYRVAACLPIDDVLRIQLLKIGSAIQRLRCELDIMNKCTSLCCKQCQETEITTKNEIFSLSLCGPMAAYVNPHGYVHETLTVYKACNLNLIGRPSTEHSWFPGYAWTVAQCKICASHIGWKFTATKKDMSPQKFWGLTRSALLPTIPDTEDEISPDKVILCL
T1 sequence (Q16531 whole entry partner, the tested form may be a part): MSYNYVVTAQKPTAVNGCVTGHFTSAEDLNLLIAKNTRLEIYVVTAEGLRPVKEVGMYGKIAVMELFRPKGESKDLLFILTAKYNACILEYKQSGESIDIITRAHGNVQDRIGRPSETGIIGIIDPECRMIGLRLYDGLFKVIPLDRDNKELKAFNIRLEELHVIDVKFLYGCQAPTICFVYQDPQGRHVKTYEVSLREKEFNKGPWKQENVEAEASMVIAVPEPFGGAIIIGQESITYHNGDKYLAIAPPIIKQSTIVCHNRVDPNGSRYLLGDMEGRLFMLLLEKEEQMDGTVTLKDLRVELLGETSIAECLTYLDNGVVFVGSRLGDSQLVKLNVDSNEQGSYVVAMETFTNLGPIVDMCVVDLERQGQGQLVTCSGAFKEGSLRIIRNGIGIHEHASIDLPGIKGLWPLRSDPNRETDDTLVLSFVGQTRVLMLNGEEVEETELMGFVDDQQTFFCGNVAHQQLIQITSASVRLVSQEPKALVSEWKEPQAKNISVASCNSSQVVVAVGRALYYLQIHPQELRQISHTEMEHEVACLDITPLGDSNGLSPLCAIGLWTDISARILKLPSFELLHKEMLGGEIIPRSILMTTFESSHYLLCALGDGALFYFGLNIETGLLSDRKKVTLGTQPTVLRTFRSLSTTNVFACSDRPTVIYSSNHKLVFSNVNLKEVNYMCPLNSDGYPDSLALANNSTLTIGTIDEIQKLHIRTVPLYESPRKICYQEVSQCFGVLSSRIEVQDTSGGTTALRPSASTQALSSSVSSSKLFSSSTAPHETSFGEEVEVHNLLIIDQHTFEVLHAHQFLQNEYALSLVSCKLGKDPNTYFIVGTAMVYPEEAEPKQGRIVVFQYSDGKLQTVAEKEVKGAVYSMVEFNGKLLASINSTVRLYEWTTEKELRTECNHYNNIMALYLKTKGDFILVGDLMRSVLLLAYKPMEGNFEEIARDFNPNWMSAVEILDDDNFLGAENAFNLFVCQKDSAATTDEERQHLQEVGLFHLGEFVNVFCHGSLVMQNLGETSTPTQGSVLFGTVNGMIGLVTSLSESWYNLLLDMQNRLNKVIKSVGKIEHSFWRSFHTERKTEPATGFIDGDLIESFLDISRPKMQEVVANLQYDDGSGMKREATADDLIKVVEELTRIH

Take `CCCC(CCC)N1CCC(Cc2ccn3ncc(N4CCC(=O)NC4=O)c3c2)CC1` [Example 12, 1-(5-((1-(heptan-4-yl)piperidin-4-yl)methyl)pyrazolo[1,5-a]pyridin-3-yl)dihydropyrimidine-2,4(1H,3H)-dione]: the Dmax at 25 µM turned out to be 84%, the remaining activity at 25 µM is 16% and the DC50 was 51 nM.
On to `C[C@H]1C[C@H](Cc2ccn3ncc(-n4cc(Cl)c(=O)[nH]c4=O)c3c2)CCN1CC1CCC(F)(F)CC1` [Example 352, 5-chloro-1-(5-(((2S,4R)-1-((4,4-difluorocyclohexyl)methyl)-2-methylpiperidin-4-yl)methyl)pyrazolo[1,5-a]pyridin-3-yl)pyrimidine-2,4(1H,3H)-dione], for which the Dmax at 25 µM came to 90%, the remaining activity at 25 µM was determined as 10% and the DC50 worked out at 192 nM.
On the same counts, the results for `CC(C)CN1CCN(Cc2ccn3ncc(N4CCC(=O)NC4=O)c3c2)C[C@@H]1C(C)C` [Example 229, (S)-1-(5-((4-isobutyl-3-isopropylpiperazin-1-yl)methyl)pyrazolo[1,5-a]pyridin-3-yl)dihydropyrimidine-2,4(1H,3H)-dione] are 0%, 100% and over 25000 nM.
In the case of `COC(C)(C)CN1CCC(Cc2ccn3ncc(N4CCC(=O)NC4=O)c3c2)CC1` [Example 105, 1-(5-((1-(2-methoxy-2-methylpropyl)piperidin-4-yl)methyl)pyrazolo[1,5-a]pyridin-3-yl)dihydropyrimidine-2,4(1H,3H)-dione], the Dmax amounted to 64%, the remaining activity worked out at 36% and the DC50 amounted to 2160 nM.
Turning to `CC(C)CN1CCN(Cc2ccn3ncc(N4CCC(=O)NC4=O)c3c2)CC1` [Example 186, 1-(5-((4-isobutylpiperazin-1-yl)methyl)pyrazolo[1,5-a]pyridin-3-yl)dihydropyrimidine-2,4(1H,3H)-dione], the Dmax at 25 µM came out at 79%, the remaining activity at 25 µM is 21% and the DC50 was 76 nM.
In the case of `COCCN1CCC(Cc2ccn3ncc(N4CCC(=O)NC4=O)c3c2)CC1` [Example 34, 1-(5-((1-(2-methoxyethyl)piperidin-4-yl)methyl)pyrazolo[1,5-a]pyridin-3-yl)dihydropyrimidine-2,4(1H,3H)-dione], the Dmax at 25 µM came to 73%, the remaining activity at 25 µM is 27% and the DC50 worked out at 945 nM.
In the case of `C[C@H]1C[C@@H](Cc2ccn3ncc(N4CCC(=O)NC4=O)c3c2)CCN1CC1CCOCC1` [Example 73], the Dmax at 25 µM turned out to be 89%, the remaining activity at 25 µM stood at 11% and the DC50 amounted to 3 nM.
On the same counts, the results for `CO[C@H]1C[C@H](CN2CCN(Cc3ccn4ncc(N5CCC(=O)NC5=O)c4c3)C[C@@H]2C)C1` [Example 316, 1-(5-(((S)-4-(((1r,3S)-3-methoxycyclobutyl)methyl)-3-methylpiperazin-1-yl)methyl)pyrazolo[1,5-a]pyridin-3-yl)dihydropyrimidine-2,4(1H,3H)-dione] are 83%, 17% and 61 nM.
In the case of `CC(C)(F)CN1CCN(Cc2ccn3ncc(N4CCC(=O)NC4=O)c3c2)CC1` [Example 169], the Dmax at 25 µM stood at 55%, the remaining activity at 25 µM is 45% and the DC50 came out at 326 nM.
For the compound `CC(=O)N1CCC(Cc2ccn3ncc(N4CCC(=O)NC4=O)c3c2)CC1` [Example 104, 1-(5-((1-acetylpiperidin-4-yl)methyl)pyrazolo[1,5-a]pyridin-3-yl)dihydropyrimidine-2,4(1H,3H)-dione], the Dmax was 62%, the remaining activity worked out at 38% and the DC50 turned out to be 7360 nM.
Turning to `CCS(=O)(=O)N1CCN(Cc2ccn3ncc(N4CCC(=O)NC4=O)c3c2)C[C@@H]1C` [Example 339, (S)-1-(5-((4-(ethylsulfonyl)-3-methylpiperazin-1-yl)methyl)pyrazolo[1,5-a]pyridin-3-yl)dihydropyrimidine-2,4(1H,3H)-dione], the Dmax at 25 µM is 35%, the remaining activity at 25 µM came to 65% and the DC50 came out at 715 nM.
For `O=C1CCN(c2cnn3ccc(CN4C[C@H]5C[C@@H]4CN5Cc4cccnc4)cc23)C(=O)N1` [Example 235, 1-(5-(((1R,4R)-5-(pyridin-3-ylmethyl)-2,5-diazabicyclo[2.2.1]heptan-2-yl)methyl)pyrazolo[1,5-a]pyridin-3-yl)dihydropyrimidine-2,4(1H,3H)-dione], the Dmax at 25 µM came to 35%, the remaining activity at 25 µM stood at 65% and the DC50 was 3280 nM.
On the same counts, the results for `CC(C)CN1CCN(Cc2ccn3ncc(N4CCC(=O)NC4=O)c3c2)[C@H](C)C1` [Example 220] are 66%, 34% and 133 nM.
The matching figures for `O=C1CCN(c2cnn3ccc(CN4CCN5CCOC[C@H]5C4)cc23)C(=O)N1` [Example 263, (R)-1-(5-((hexahydropyrazino[2,1-c][1,4]oxazin-8(1H)-yl)methyl)pyrazolo[1,5-a]pyridin-3-yl)dihydropyrimidine-2,4(1H,3H)-dione]: 55%, 45% and 880 nM.
For `CC(C)CN1CCN(Cc2ccn3ncc(N4CCC(=O)NC4=O)c3c2)CC1(C)C` [Example 233, 1-(5-((4-isobutyl-3,3-dimethylpiperazin-1-yl)methyl)pyrazolo[1,5-a]pyridin-3-yl)dihydropyrimidine-2,4(1H,3H)-dione], the Dmax at 25 µM was found to be 40%, the remaining activity at 25 µM stood at 60% and the DC50 amounted to 589 nM.
With `O=C1CCN(c2cnn3ccc(CC4CCN(S(=O)(=O)N5CCCC5)CC4)cc23)C(=O)N1` [Example 297, 1-(5-((1-(pyrrolidin-1-ylsulfonyl)piperidin-4-yl)methyl)pyrazolo[1,5-a]pyridin-3-yl)dihydropyrimidine-2,4(1H,3H)-dione], the Dmax at 25 µM is 68%, the remaining activity at 25 µM was 32% and the DC50 was 29 nM.
As for `O=C1CCN(c2cnn3ccc(CC4CCN(CC(=O)N5CCCCC5)CC4)cc23)C(=O)N1` [Example 52, 1-(5-((1-(2-oxo-2-(piperidin-1-yl)ethyl)piperidin-4-yl)methyl)pyrazolo[1,5-a]pyridin-3-yl)dihydropyrimidine-2,4(1H,3H)-dione], the Dmax at 25 µM came to 59%, the remaining activity at 25 µM stood at 41% and the DC50 is 987 nM.
For the compound `CC(C)CCN1CCC(Cc2ccn3ncc(N4CCC(=O)NC4=O)c3c2)CC1` [Example 19, 1-(5-((1-isopentylpiperidin-4-yl)methyl)pyrazolo[1,5-a]pyridin-3-yl)dihydropyrimidine-2,4(1H,3H)-dione], the Dmax at 25 µM worked out at 81%, the remaining activity at 25 µM is 19% and the DC50 came to 20 nM.
The matching figures for `O=C1CCN(c2cnn3ccc(CC4CCN(CC5(F)CCCCC5)CC4)cc23)C(=O)N1` [Example 107, 1-(5-((1-((1-fluorocyclohexyl)methyl)piperidin-4-yl)methyl)pyrazolo[1,5-a]pyridin-3-yl)dihydropyrimidine-2,4(1H,3H)-dione]: 78%, 22% and 31 nM.
The matching figures for `C[C@@H]1C[C@H](Cc2ccn3ncc(N4CCC(=O)NC4=O)c3c2)CCN1CC1CCCCC1` [Example 76]: 81%, 19% and 36 nM.
On the same counts, the results for `O=C1CCN(c2cnn3ccc(CN4CCN(CC5CCCC5)CC4)cc23)C(=O)N1` [Example 159] are 81%, 19% and 23 nM.
Take `O=C1CCN(c2cnn3ccc(CC4CCN(C[C@H]5CC[C@H](O)CC5)CC4)cc23)C(=O)N1` [Example 151, 1-(5-((1-(((1r,4r)-4-hydroxycyclohexyl)methyl)piperidin-4-yl)methyl)pyrazolo[1,5-a]pyridin-3-yl)dihydropyrimidine-2,4(1H,3H)-dione]: the Dmax at 25 µM was 86%, the remaining activity at 25 µM was 14% and the DC50 came out at 270 nM.
The matching figures for `C[C@H]1CC(F)(Cc2ccn3ncc(N4CCC(=O)NC4=O)c3c2)CCN1C1COC1` (single isomer, unassigned) [Example 310]: 73%, 27% and 150 nM.
On the same counts, the results for `O=C1CCN(c2cnn3ccc(CC4CCN(CC5CCNCC5)CC4)cc23)C(=O)N1` [Example 63] are 36%, 64% and over 25000 nM.
The matching figures for `CCC(C)CN1CCC(Cc2ccn3ncc(N4CCC(=O)NC4=O)c3c2)CC1` (stereo not drawn) [Example 9, 1-(5-((1-(2-methylbutyl)piperidin-4-yl)methyl)pyrazolo[1,5-a]pyridin-3-yl)dihydropyrimidine-2,4(1H,3H)-dione]: 84%, 16% and 31 nM.
For the compound `C[C@H]1CN(Cc2ccn3ncc(N4CCC(=O)NC4=O)c3c2)CCN1CCC1CCOCC1` [Example 206], the Dmax at 25 µM worked out at 78%, the remaining activity at 25 µM was found to be 22% and the DC50 worked out at 193 nM.
